# What was measured:
# [1] = tested on: hPMBC; assay: Chymotrypsin-like ProteasomeGlo assay in hPBMC; format: cell-based; settings: Homo sapiens; read-out: Pglo hPBMC
# Source text: Chymotrypsin-like ProteasomeGlo assay in the B-cells isolated from PBMC's following compound addition (IC50). • 1. PBMC's will be isolated from human blood followed by B-cell isolation from the PBMC's using the Miltenyi Isolation Kit. • 2. This experiment will use the Chymotrypsin-like ProteasomeGlo read-out to generate IC50's following compound treatment. • 3. Dilute all compounds 1:100 for the assay. • 4. […] Repeat the DMSO transfer with lane 12. • 5. Lane 12 should not be seeded with any cells. Only medium! • 6. For all steps, make sure the samples and reagents remain cool! • 7. While dealing with the buffy coats, be careful to not let any exposed skin to be in direct contact with the blood.
# For the initial steps and to make processing the buffy coats easier, separately process the buffy coats. • a. Cut the tube attached to the buffy coats carefully using a clean, sterile and fresh scalpel. • b. Transfer the blood into 2 individual 50 ml falcons. • c. Add an equal volume of DPBS to the blood in the falcons. • d. Add ˜20 ml of lymphocyte separating medium to two 50 ml falcons. • e. Carefully pour 15-20 ml of the blood+DPBS mix from step c. onto the lymphocyte separating medium from step d. • f. Centrifuge the falcons with the lymphocyte separating medium+blood mix at 800×g for 15 minutes using a swing-out rotor. • g. Following centrifugation, carefully remove the falcons from the centrifuge. • h. The following layers will be observed: • i. Aspirate the plasma layer off carefully without disturbing the different layers. • j. Remove the cell pellet using a pipette into two fresh 50 ml falcons. • k. Fill the falcons with the cells up to 50 ml with DPBS. • l. Centrifuge the falcons at 250×g for 10 minutes using a swing-out rotor (Brake-off). • m. Aspirate the complete DPBS off the cells without disturbing the cell pellet at the bottom of the falcon. • n. Re-suspend the cell pellet in 10 ml of 1×RBC lysis buffer. • o. Incubate the falcons at room temperature in the dark for 10 minutes. • p. After RBC lysis, centrifuge the tubes at 250×g for 10 minutes using a swing-out rotor (brake-off). • (*Note: If the cell pellet is still red or light red, repeat steps n. to p.!) • q. Re-suspend the cell pellet in DPBS up to 50 ml in the falcon. • r. Centrifuge the falcons at 250×g for 10 minutes using a swing-out rotor (Brake-off). • s. Aspirate the DPBS off the cells without disturbing the cell pellet at the bottom of the falcon. • t. Repeat the wash step as described in steps q. to s. 2× times more (total number of washes is 3×). • u. Aspirate the DPBS completely off the cell pellet after the last wash without disturbing the cell pellet. • v. Re-suspend the cell pellet in 20 ml of PBMC cell medium. • w.
# • a. Remove the plates with cells from the incubator. • b. Take all the plates including the compound plate, intermediate plate and Staurosporine plate to the ECHO. • c. Click on “Open” in the ECHO software and select the protocol “QLI5_25ul_30 uM-Grenier”. • d. Follow the on-screen prompts and instructions once you click “Start” to insert the compound plate, intermediate plate and destination plates. • e. Change the final number of destination plates on the program. • f. Follow the on-screen prompts and instructions once you click “Start” to load the Staurosporine and destination plates. • g. Once all the compounds, DMSO and Staurosporine have been transferred, place the destination plates in a wet tissue box. • h. Place the destination plates back into the incubator and incubate at 37° C., 5% CO2 for 105 minutes. • i. Re-seal all the compound+Stauro diamond and intermediate plates and store in the dark. Chymotrypsin like ProteasomeGlo Assay • 1. Thaw the components of the ProteasomeGlo assay at room temperature including the ProteasomeGlo Buffer, the lyophilized Luciferin Detection Reagent and the Suc-LLVY-Glo Substrate. • 2. […]
# [2] = tested on: HT-29 cells; assay: CellTiter-Glo luminescent cell viability assay with HT-29 cells (72h incubation); format: cell-based, human; settings: Homo sapiens, HT-29, HT29 cells, read-out: CTG HT29
# Outline: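 400 cells per well in DMEM/10% FCS were dosed after 24 h and kept 72 h at 37 °C, 5% CO2. ATP-based luminescence (CellTiter-Glo) normalized to DMSO and 10 μM staurosporine controls; IC50 by dose-response fit.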
# [3] = tested on: A549 (human lung carcinoma cell line); assay: Glo assay of A549 cells (Table 3; ProteasomeGlo plating scheme); format: cell-based; settings: Homo sapiens; A549 cells; read-out: PGLo A549
# Outline: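 Compound treatment lasts 105 minutes at 37° C. under 5% CO2. Suc-LLVY-Glo substrate premixed with detection reagent (60 min at room temperature) is then added directly to the cells, and luminescence after 10-15 min in the dark gives the IC50 in nM.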
# [4] = molecular target: T1, β5 subunit of the human immunoproteasome (IPS) (Homo sapiens, UniProt P28062); assay: β5 inhibition assay, human immunoproteasome (Suc-LLVY-AMC); format: biochemical; settings: IC50 class, Suc-LLVY-AMC substrate
# T1 construct: purchased Boston Biochem E-370
# Outline: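 Human immunoproteasome (1 nM final) was preincubated 10 min at RT with compound in 100 mM HEPES pH 7.5, 50 mM NaCl, 0.02% SDS, 1 mM DTT. Suc-LLVY-AMC (22.6 μM final) was then added for 4 h at RT in the dark. After stopping with 1 μM bortezomib, AMC fluorescence was read (ex 355/em 460 nm).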
# [5] = molecular target: T2, β5 subunit of the human constitutive proteasome (CPS) (Homo sapiens, UniProt P28074); assay: β5 inhibition assay, human constitutive proteasome (Suc-LLVY-AMC); format: biochemical; settings: IC50 class, Suc-LLVY-AMC substrate
# T2 construct: purchased Boston Biochem E-360
# Experimental: The enzymatic activity of the β5 subunit of the human constitutive proteasome (CPS) is analyzed. In another assay, which differs from the assay of the human constitutive proteasome only in using the human immunoproteasome (IPS) the enzymatic activity of the β5 subunit of the human immunoproteasome (IPS) is analyzed. […] Inhibition is indicated as IC50 [nM] (“-”=not measured).
# [6] = tested on: RPMI 8226 (B lymphocyte cell line, multiple myeloma); assay: 48 hr CTG viability assay, RPMI 8226; format: cell-based; settings: Homo sapiens, RPMI-8226; 48 hr CTG; read-out: RPMI-8226 IC50
# Outline: (§1)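 Growth inhibition by compound over 48 h; IC50 (nM) derived from duplicate CellTiter-Glo luminescence readings across 0.0015–10 uM.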
# [7] = tested on: Hs 746T (human gastric carcinoma cell line); assay: 48 hr CTG viability assay, Hs 746T; format: cell-based; settings: Hs746T, 48 hr CTG, read-out: Hs 746T IC50
# Outline: as §1
# [8] = tested on: MM1 S (B lymphoblast cell line); assay: 48 hr CTG viability assay, MM1S; format: cell-based; settings: Homo sapiens, 48 hr CTG, read-out: MM1S IC50
# Outline: as §1
SMILES,IC50 [1],IC50 [2],IC50 [3],IC50 [4],IC50 [5],IC50 [6],IC50 [7],IC50 [8]
"CC(=O)N[C@H]1CC(=O)N2CCC2(C)COc2ccc(C)c(c2)CNC(=O)[C@H](CCc2ccccc2)NC1=O (stereo partly drawn) [Compound 260, N-((8S,11S)-1^2,4^4-dimethyl-7,10,13-trioxo-8-phenethyl-3-oxa-6,9-diaza-1(2,1)-azetidina-4(1,3)-benzenacyclotridecaphane-11-yl)acetamide]",> 5 µM,100 to 500 nM,,,,,,
"CC(=O)N[C@H]1CC(=O)N(C)CCCOc2ccc(C)c(c2)CNC(=O)[C@H](CCc2ccccc2)NC1=O [Compound 256, N-((9S,12S)-1^4,6-dimethyl-7,10,13-trioxo-12-phenethyl-2-oxa-6,11,14-triaza-1(1,3)-benzenacyclopentadecaphane-9-yl)acetamide]",> 5 µM,100 to 500 nM,,,,,,
"CC(=O)N[C@H]1CC(=O)N2CCCC(COc3ccc(C)c(c3)CNC(=O)[C@H](CCc3ccccc3)NC1=O)C2 (stereo partly drawn) [Compound 257, N-((8S,11S)-4^4-methyl-7,10,13-trioxo-8-phenethyl-3-oxa-6,9-diaza-1(3,1)-piperidina-4(1,3)-benzenacyclotridecaphane-11-yl)acetamide]",1 to 5 µM,100 to 500 nM,,,,,,
"CC(=O)N[C@H]1CC(=O)NCCCOc2ccc(C)c(c2)CNC(=O)[C@H](CCc2ccccc2)NC1=O [Compound 253, N-((9S,12S)-1^4-methyl-7,10,13-trioxo-12-phenethyl-2-oxa-6,11,14-triaza-1(1,3)-benzenacyclopentadecaphane-9-yl)acetamide]",> 5 µM,100 to 500 nM,,,,,,
"Cc1ccc2cc1CNC(=O)[C@H](CCc1ccccc1)NC(=O)[C@@H](NC(=O)OCc1ccccc1)CCCC(=O)N1CCC(CO2)C1 (stereo partly drawn) [Compound 351, benzyl ((8S, 11S)-4^4-methyl-7,10,15-trioxo-8-phenethyl-3-oxa-6,9-diaza-1(3,1)-pyrrolidina-4(1,3)-benzenacyclopentadecaphane-11-yl)carbamate]",< 0.1 µM,100 to 500 nM,100 to 500 nM,,,,,
"CC(=O)N[C@H]1CC(=O)NCCCCOc2ccc(C)c(c2)CNC(=O)[C@H](CCc2ccccc2)NC1=O [Compound 168, N-((10S,13S)-1^4-methyl-8,11,14-trioxo-13-phenethyl-2-oxa-7,12,15-triaza-1(1,3)-benzenacyclohexadecaphane-10-yl)acetamide]",1 to 5 µM,100 to 500 nM,,1000 to 5000 nM,> 5000 nM,,,
"CC(=O)N[C@H]1CC(=O)N2CCCC(C2)Oc2ccc(C)c(c2)CNC(=O)[C@H](CCc2ccccc2)NC1=O (stereo partly drawn) [Compound 255, N-((7S,10S)-3^4-methyl-6,9,12-trioxo-7-phenethyl-2-oxa-5,8-diaza-1(3,1)-piperidina-3(1,3)-benzenacyclododecaphane-10-yl)acetamide]",> 5 µM,100 to 500 nM,> 5000 nM,,,,,
"CC(=O)N[C@H]1CC(=O)N2CC(COc3ccc(C)c(c3)CNC(=O)[C@H](CCc3ccccc3)NC1=O)C2 [Compound 259, N-((8S,11S)-4^4-methyl-7,10,13-trioxo-8-phenethyl-3-oxa-6,9-diaza-1(3,1)-azetidina-4(1,3)-benzenacyclotridecaphane-11-yl)acetamide]",> 5 µM,100 to 500 nM,,,,,,
"Cc1cc2cc(c1C)CNC(=O)[C@H](CCc1ccccc1)NC(=O)[C@@H](NC(=O)OCc1ccccc1)CCCC(=O)NCCCCO2 [Compound 354, benzyl ((12S,15S)-14,15-dimethyl-8,13,16-trioxo-15-phenethyl-2-oxa-7,14,17-triaza-1(1,3)-benzenacyclooctadecaphane-12-yl)carbamate]",< 0.1 µM,100 to 500 nM,,,,,,
"Cc1ccc2cc1CNC(=O)[C@H](CCc1ccccc1)NC(=O)[C@@H](NC(=O)CCOC1CC1)CC(=O)N1CCCC(CCO2)C1 (stereo partly drawn) [Compound 597, 3-cyclopropoxy-N-((9S,12S)-5^4-methyl-8,11,14-trioxo-9-phenethyl-4-oxa-7,10-diaza-1(3,1)-piperidina-5(1,3)-benzenacyclotetradecaphane-12-yl)propanamide]",,,< 100 nM,< 100 nM,< 100 nM,< 100 nM,< 100 nM,< 100 nM
"Cc1ccc2cc1CNC(=O)[C@H](CCc1ccccc1)NC(=O)[C@@H](NC(=O)CCNC(=O)c1cccc(OCC(C)C)c1)CC(=O)N1CCCC(CCO2)C1 (stereo partly drawn) [Compound 651, 3-isobutoxy-N-(3-(((9S,12S)-5^4-methyl-8,11,14-trioxo-9-phenethyl-4-oxa-7,10-diaza-1(3,1)-piperidina-5(1,3)-benzenacyclotetradecaphane-12-yl)amino)-3-oxopropyl)benzamide]",,,< 100 nM,< 100 nM,< 100 nM,< 100 nM,< 100 nM,< 100 nM
